Melting point data for 31 compounds are collected here from patent publication US6489320B1, “5, 5-disubstituted-1, 5-dihydro-4, 1-benzoxazepin-2 (3H)-ones useful as HIV reverse transcriptase inhibitors” (Bristol-Myers Squibb Pharma Company, priority 1997, dated 2002).

Several values for one entry are separate records, joined by “and”; a condition that tells them apart may be missing. Equal entries are not always repeated. Structures can show the parent of a compound that is named as a salt.

`O=C1COC(C#Cc2ccccc2)(C(F)(F)F)c2cc(Cl)ccc2N1` (stereo not shown) (as salt: sodium) [Example 16, 7-Chloro-5-phenylethynyl-1,5-dihydro-5-(trifluoromethyl)-4,1-benzoxazepin-2(3H)-one] had a melting point of 190 to 191 °C.

Compound `CC[C@@H]1O[C@](C#Cc2ccoc2)(C(F)(F)F)c2cc(Cl)ccc2NC1=O` (relative stereo) (as salt: sodium) [Example 32, rel-(3S,5S)-7-Chloro-5-(3-furanylethynyl)-1,5-dihydro-3-ethyl-5-(trifluoromethyl)-4,1-benzoxazepin-2(3H)-one] yielded a melting point of 169 to 170 °C.

Consider `C[C@@H]1O[C@](/C=C/C2CC2)(C(F)(F)F)c2cc(Cl)ccc2NC1=O` (relative stereo) [Example 6, rel-(3S,5S)-trans-7-Chloro-5-(2-cyclopropylethenyl)-1,5-dihydro-3-methyl-5-(trifluoromethyl)-4,1-benzoxazepin-2(3H)-one], for which the melting point was 171 to 172 °C.

Compound `C[C@@H]1O[C@](/C=C/c2ccco2)(C(F)(F)F)c2cc(Cl)ccc2NC1=O` (relative stereo) [Example 9, rel-(3S,5S)-trans-7-Chloro-1,5-dihydro-5-(2-furan-2-ylethenyl)-3-methyl-5-(trifluoromethyl)-4,1-benzoxazepin-2(3H)-one] showed a melting point of 205 to 206.5 °C.

`CCC[C@@H]1O[C@](C#CC2CC2)(C(F)(F)F)c2cc(Cl)ccc2NC1=O` (relative stereo) [Example 14a, rel-(3S,5S)-7-Chloro-5-cyclopropylethynyl-1,5-dihydro-3-propyl-5-(trifluoromethyl)-4,1-benzoxazepin-2(3H)-one] displayed a melting point of 191 to 192 °C.

`CCC[C@H]1O[C@](C#CC2CC2)(C(F)(F)F)c2cc(Cl)ccc2NC1=O` (relative stereo) [Example 14b, rel-(3R,5S)-7-Chloro-5-cyclopropylethynyl-1,5-dihydro-3-propyl-5-(trifluoromethyl)-4,1-benzoxazepin-2(3H)-one] displayed a melting point of 141 °C.

As for `CC(C)[C@@H]1O[C@](C#CC2CC2)(C(F)(F)F)c2cc(Cl)ccc2NC1=O` (relative stereo) [Example 15, rel-(3S,5S)-7-Chloro-5-cyclopropylethynyl-1,5-dihydro-3-isopropyl-5-(trifluoromethyl)-4,1-benzoxazepin-2(3H)-one], the melting point was determined as 167 °C.

For `CC[C@@H]1O[C@](C#CC2CC2)(C(F)(F)F)c2cc(Cl)ccc2NC1=O` (relative stereo) [Example 22, rel-(3S,5S)-7-Chloro-5-cyclopropylethynyl-1,5-dihydro-3-ethyl-5-(trifluoromethyl)-4,1-benzoxazepin-2(3H)-one], the melting point is 180 to 181 °C.

Turning to `CC[C@H]1O[C@](C#CC2CC2)(C(F)(F)F)c2cc(Cl)ccc2NC1=O` (relative stereo) [Example 23, rel-(3R,5S)-7-Chloro-5-cyclopropylethynyl-1,5-dihydro-3-ethyl-5-(trifluoromethyl)-4,1-benzoxazepin-2(3H)-one], the melting point fell in the range of 129 to 130 °C.

As to `CCC[C@@H]1O[C@](/C=C/C2CC2)(C(F)(F)F)c2cc(Cl)ccc2NC1=O` (relative stereo) [Example 30, rel-(3S,5S)-trans-7-Chloro-5-(2-cyclopropylethenyl)-1,5-dihydro-3-propyl-5-(trifluoromethyl)-4,1-benzoxazepin-2(3H)-one], the melting point was 165 to 167 °C and 167 °C.

Compound `CC[C@@H]1O[C@](/C=C/C2CC2)(C(F)(F)F)c2cc(Cl)ccc2NC1=O` (relative stereo) [Example 38, rel-(3S,5S)-trans-7-Chloro-5-(2-cyclopropylethenyl)-1,5-dihydro-3-ethyl-5-(trifluoromethyl)-4,1-benzoxazepin-2(3H)-one] registered a melting point of 147 to 147.5 °C.

Compound `C=C[C@@H]1O[C@](/C=C/C2CC2)(C(F)(F)F)c2cc(Cl)ccc2NC1=O` (relative stereo) [Example 42, rel-(3S,5S)-trans-7-Chloro-5-(2-cyclopropylethenyl)-1,5-dihydro-3-ethenyl-5-(trifluoromethyl)-4,1-benzoxazepin-2(3H)-one] displayed a melting point of 165.5 to 166.5 °C.

Turning to `O=C1Nc2ccc(Cl)cc2[C@@](/C=C/C2CC2)(C(F)(F)F)O[C@H]1C1CC1` (relative stereo) [Example 44, rel-(3S,5S)-trans-7-Chloro-5-(2-cyclopropylethenyl)-1,5-dihydro-3-cyclopropyl-5-(trifluoromethyl)-4,1-benzoxazepin-2(3H)-one], the melting point lay within 143 to 144 °C.

The compound `C=C[C@@H]1O[C@](C#CC2CC2)(C(F)(F)F)c2c(ccc(F)c2F)NC1=O` (relative stereo) [Example 45, rel-(3S,5S)-6,7-Difluoro-5-(2-cyclopropylethynyl)-1,5-dihydro-3-ethenyl-5-(trifluoromethyl)-4,1-benzoxazepin-2(3H)-one] registered a melting point of 171 to 172 °C.

In turn, `O=C1Nc2ccc(F)c(F)c2[C@@](C#CC2CC2)(C(F)(F)F)O[C@H]1C1CC1` (relative stereo) [Example 46, rel-(3S,5S)-6,7-Difluoro-5-(2-cyclopropylethynyl)-1,5-dihydro-3-cyclopropyl-5-(trifluoromethyl)-4,1-benzoxazepin-2(3H)-one] came in with a melting point of 222 to 222.5 °C.

The compound `C[C@@H]1O[C@](C#CC2CC2)(C(F)(F)F)c2cc(F)ccc2NC1=O` (relative stereo) [Example 48, rel-(3S,5S)-7-Fluoro-5-(2-cyclopropylethynyl)-1,5-dihydro-3-methyl-5-(trifluoromethyl)-4,1-benzoxazepin-2(3H)-one] had a melting point of 184 to 185 °C.

`CC[C@@H]1O[C@](C#CC2CC2)(C(F)(F)F)c2cc(F)ccc2NC1=O` (relative stereo) [Example 49, rel-(3S,5S)-7-Fluoro-5-(2-cyclopropylethynyl)-1,5-dihydro-3-ethyl-5-(trifluoromethyl)-4,1-benzoxazepin-2(3H)-one] returned a melting point of 186 °C.

The compound `C[C@@H]1O[C@](/C=C/C2CC2)(C(F)(F)F)c2cc(F)ccc2NC1=O` (relative stereo) [Example 50, rel-(3S,5S)-trans-7-Fluoro-5-(2-cyclopropylethenyl)-1,5-dihydro-3-methyl-5-(trifluoromethyl)-4,1-benzoxazepin-2(3H)-one] returned a melting point of 180 to 182 °C.

`CC[C@@H]1O[C@](/C=C/C2CC2)(C(F)(F)F)c2cc(F)ccc2NC1=O` (relative stereo) [Example 51, rel-(3S,5S)-trans-7-Fluoro-5-(2-cyclopropylethenyl)-1,5-dihydro-3-ethyl-5-(trifluoromethyl)-4,1-benzoxazepin-2(3H)-one] returned a melting point of 148 to 149 °C.

The compound `C[C@@H]1O[C@](C#CC2CC2)(C(F)(F)F)c2c(ccc3c2OCO3)NC1=O` (relative stereo) [Example 52, rel-(3S,5S)-6,7-Methylenedioxy-5-(2-cyclopropylethynyl)-1,5-dihydro-3-methyl-5-(trifluoromethyl)-4,1-benzoxazepin-2(3H)-one] registered a melting point of 252 °C.

Compound `CC[C@@H]1O[C@](C#CC2CC2)(C(F)(F)F)c2c(ccc3c2OCO3)NC1=O` (relative stereo) [Example 53, rel-(3S,5S)-6,7-Methylenedioxy-5-(2-cyclopropylethynyl)-1,5-dihydro-3-ethyl-5-(trifluoromethyl)-4,1-benzoxazepin-2(3H)-one] had a melting point of 201 to 202 °C.

Regarding `C[C@@H]1O[C@](/C=C/C2CC2)(C(F)(F)F)c2c(ccc3c2OCO3)NC1=O` (relative stereo) [Example 54, rel-(3S,5S)-trans-6,7-Methylenedioxy-5-(2-cyclopropylethenyl)-1,5-dihydro-3-methyl-5-(trifluoromethyl)-4,1-benzoxazepin-2(3H)-one], the melting point is 236 to 237 °C.

`CC[C@@H]1O[C@](/C=C/C2CC2)(C(F)(F)F)c2c(ccc3c2OCO3)NC1=O` (relative stereo) [Example 55, rel-(3S,5S)-trans-6,7-Methylenedioxy-5-(2-cyclopropylethenyl)-1,5-dihydro-3-ethyl-5-(trifluoromethyl)-4,1-benzoxazepin-2(3H)-one] came in with a melting point of 188 to 190 °C.

For `CC(C)C#C[C@]1(C(F)(F)F)OCC(=O)Nc2ccc(Cl)cc21` (single isomer, unassigned) [Example 4], the melting point was 135 to 136 °C.

In the case of `CCC#CC1(C(F)(F)F)OCC(=O)Nc2ccc(Cl)cc21` (stereo not shown) [Example 1, 5-(1-Butynyl)-7-chloro-1,5-dihydro-5-(trifluoromethyl)-4,1-benzoxazepin-2(3H)-one], the melting point is 167 to 168 °C.

For the compound `CCC#CC1(C(F)(F)F)OC(c2ccccc2)C(=O)Nc2ccc(Cl)cc21` [Example 2, rel-(3S,5S)-5-(1-Butynyl)-7-chloro-1,5-dihydro-3-phenyl-5-(trifluormethyl)-4,1-benzoxazepin-2(3H)-one], the melting point lay in the range of 198 to 199 °C.

With `CC(C)C#CC1(C(F)(F)F)OCC(=O)Nc2ccc(Cl)cc21` (stereo not shown) [Example 3, 7-Chloro-1,5-dihydro-5-(isopropylethynyl)-5-(trifluoromethyl)-4,1-benzoxazepin-2(3H)-one], the melting point was in the range of 183 to 183.5 °C.

Take `O=C1COC(/C=C/C2CC2)(C(F)(F)F)c2cc(Cl)ccc2N1` (stereo not drawn) [Example 5, trans-7-Chloro-5-(2-cyclopropylethenyl)-1,5-dihydro-5-(trifluoromethyl)-4,1-benzoxazepin-2(3H)-one]: the melting point was 157 to 158 °C.

`CC(C)C#CC1(C(F)(F)F)OCC(=O)Nc2ccc(F)cc21` (stereo not shown) [Example 7, 1,5-Dihydro-7-fluoro-5-isopropylethynyl-5-(trifluoromethyl)-4,1-benzoxazepin-2(3H)-one] showed a melting point of 172 to 173 °C.

As for `O=C1COC(/C=C/c2ccco2)(C(F)(F)F)c2cc(Cl)ccc2N1` (stereo not drawn) [Example 10, trans-7-Chloro-1,5-dihydro-5-(2-furan-2-yl)ethenyl-5-(trifluoromethyl)-4,1-benzoxazepin-2(3H)-one], the melting point is 199 to 200 °C.

Compound `CC(C)C#CC1(C(F)(F)F)OCC(=O)Nc2ccc(F)c(F)c21` (stereo not shown) [Example 13, 6,7-Difluoro-1,5-dihydro-5-(isopropylethynyl)-5-(trifluoromethyl)-4,1-benzoxazepin-2(3H)-one] showed a melting point of 192.5 to 193.5 °C.

By melting point is commonly meant the temperature of the solid-liquid transition.
